The text below walks through data of patent publication US8496963B2, “Oral formulations of glycyl-2-methylprolyl-glutamate” (priority 2007, dated 2013).

Series [1] deals with Caco-2 cells. The experiment in a line: Cytotoxicity: sulforhodamine B (SRB) growth inhibition of Caco-2 cells. Particulars: read-out: IC50 of G-2MePE, growth of Caco-2 cells.
Description: (§1) The purpose of this study growth was to determine if GPE and/or G-2MePE can inhibit growth of cells.
(§2) The cells were fixed by TCA and SRB was added to each well. Cell-bound dye was extracted with Tris base buffer to solubilize the dye and the absorbance determined by a plate reader at 570 nm. Inhibition of growth was expressed as relative viability (% control) and the IC50 was calculated from the concentration-response curves after log/probit transformation.
The test system of series [2] is Caco-2 cells. The class given is in vitro ADME, human. The method, then:
The purpose of these studies was to determine the effect of pH on the degradation of G-2MePE by Caco-2 cells.
100 μg/ml G-2MePE was added to the apical side of confluent cultures of Caco-2 cells in different pH conditions. Samples were taken at 0, 15, 30, 45, 60, 90, 120, 150, 180, 210, 240 min later. Samples were centrifuged at 20,000 g for 15 min and 50 μl supernatant was injected to the column of HPLC. […] Peptidolytic activity and half-life of G-2MePE were then determined in different pH condition.

Series [3] deals with Caco-2 cells. The class given is in vitro ADME, human. The note with it: Caco-2, pH 7.4. The protocol: Fresh medium was replaced every 2-3 days. Cells were cultured at 37° C. for 12-14 days for uptake assay study. The uptake assay study was commenced after cells reached confluency, i.e., after 12-14 days in culture. Each dish was washed with HEPES (pH 7.4). […] The cells were scraped off with a cell scraper into an extraction solution and centrifuged at 20,000 g for 20 min. […] The pellet was diluted by NaOH to determine the protein content by Lowry assay.

The next series in a line: in vitro. Particulars: human, Caco-2.
For series [4], the system named is Caco-2 cells.
Description: as §1, §2
The next series deals with Caco-2 cell monolayer. The experiment in a line: Stability of GPE and G-2MePE in the presence of Caco-2 cells. Particulars: 50-100 μg/ml, HBSS pH 7.4, HPLC. Type of series: in vitro ADME, human. The protocol:
The collected samples were extracted by adding 400 μl of 0.04M sulphuric acid into test tubes, each of which contained 50 μl of a sample. The test tubes were left on ice for 5 min and vortexed. The 50 μl of 10% sodium tungstate was added to each tube and the tubes were vortexed immediately and left on ice for 10 min, vortexed again and left on ice for another 10 min. The cells were centrifuged at 20,000 g at 4° C. for 20 min. The supernatant was collected for testing. […] The protein content of samples was measured by Lowry assay.

The subject of series [5] is Caco-2 epithelial cell layer. The experiment in a line: Permeability of fluorescein and TEER across Caco-2 cells with permeation enhancers. Type of series: in vitro ADME, human. The protocol: The purpose of this study was to determine the appearance permeation coefficient (Papp) and transepithelial electrical resistance (TEER) across confluent cultures of Caco-2 epithelial cells caused by a typical hydrophilic material.
Integrity of Caco-2 cell cultures was assessed by measuring the TEER and the leakage of ^14C-mannitol or fluorescein across confluent cultures. Inserts with confluent cell cultures and an electrical resistance of greater than 300 Ω/cm^2, were considered appropriate for these studies. Fluorescein or 0.5 μCi/50 μl of ^14C-mannitol was added to the apical cell and incubated for 1-4 hours. The acceptable leakage was considered to be <0.5-1%. 6 inserts with good integrity were chosen and then washed with transport buffer. The medium from all apical and basolateral wells was removed. The cell cultures were washed twice with warm 37° C. transport buffer.
The solution on the transwell receptor side was then replaced with 0.4 ml of fresh HBSS, and we collected 0.1 ml from the donor side (then replaced with 0.1 ml sodium fluorescein at the same concentration). The reaction was terminated from donor side by adding the same volume HCl (0.2M) or by 3:1 Acetonitril/methonal with 2% acetic acid to each sample. […] Supernatants were collected, dried by Speed Vacuum, diluted with mobile phase and the resulting sample was analysed by spectrofluorophotometer. The apparent permeability coefficient was used to compare the permeability between control and treatment groups (FIG. 4). Transepithelial electric resistance (TEER) was measured using a Millipore voltage meter at different time points.
In general terms: Caco-2 monolayers are a common model of the intestinal barrier.

For series [6], the system named is Caco-2 epithelial membrane. Kind of series: Permeability of G-2MePE and TEER across Caco-2 cells with permeation enhancers. Type of series: in vitro ADME, human. The protocol:
The purpose of this study was to determine if permeability enhancers can increase transport of G-2MePE across Caco-2 cell layers.
G-2MePE was added in three or six replicates to the donor sides of Transwells containing Caco-2 cells in the absence or presence of various permeation enhancers (FIG. 4), 1.5 ml transport buffer was added to the receptor side. The Transwells were then left to incubate. […] After each sample was taken, 0.4 ml of fresh HBSS buffer was added to the side of the Transwell from which sample was taken. Subsequently, 0.1 ml donor solution was collected to measure the concentration of the intact G-2MePE. Following each sampling, 0.1 ml of G-2MePE at the same concentration was replaced.
Peptidolysis was terminated by adding the same volume of HCl (0.2M) to each sample. […] Supernatants were collected, dried by Speed Vacuum, diluted with mobile phase and analysed by spectrofluorophotometer. […] Transepthelial electric resistance (TEER) was measured using a Millipore voltage meter at different time points.

Like-named read-outs stand apart in the source and are kept apart here. Bridge positions count the residues as written; N and C are the ends. Square brackets hold non-standard residues; d marks the D form. Peptide text beside a SMILES is read from it. * marks the point of attachment. Ileψ(thiazoline)Cys = CC[C@H](C)[C@H](N)C1=N[C@H](C(=O)*)CS1; αMeP = C[C@@]1(C(=O)O)CCCN1; dOrn = NCCC[C@@H](N)C(=O)O Bounds are passed on as bounds.

Description for in vitro: as §1, §2

Turning to `C[C@@]1(C(=O)N[C@@H](CCC(=O)O)C(=O)O)CCCN1C(=O)CN` [Formulation G-2MePE, Glycyl-2-Methylprolyl Glutamate] (H-Gly-[αMeP]-Glu-OH), the IC50 was 4640 µM in the series on Caco-2 cells [1] (24 hours); 3660 µM in the series on Caco-2 cells [1] (48 hours); 2240 µM in the series on Caco-2 cells [1] (72 hours); 1090 µM with Caco-2 cells [1] (96 hours); 1010 µM in the series on Caco-2 cells [1] (120 hours). Also, in the series on Caco-2 cells [2] (Caco-2), the “pH at which G-2MePE is stable” value was at most 5.5. The “degradation in basic conditions” value with Caco-2 cells [2] (Caco-2, pH 7) was “Moderate degradation”. In addition, the “uptake of G-2MePE by Caco-2 cells” value with Caco-2 cells [3] was determined as 1.3%.

In “in vitro”, `NCC(=O)N1CCC[C@H]1C(=O)N[C@@H](CCC(=O)O)C(=O)O` [GPE, glycyl-prolyl-glutarnate] displayed an inhibition at 15 mM of 35%. Moreover, the IC50 with Caco-2 cells [4] was at least 15000 µM. Besides, in the series with Caco-2 cell monolayer, the “metabolites identified in the presence of Caco-2 cells” value is recorded as “Four”.

For the compound `CCCCCCCCCC(=O)[O-].[Na+]` [Sodium caprate], in series [5] (20 mM caprate vs 20 mM taurocholate), the “relative effect on fluorescein permeability” value is listed as “greater than the effect of the same concentration of taurocholate”. The “TEER of Caco-2 cell layer” value in series [5] (fluorescein transport experiment, 3 h, sodium caprate 10 or 20 mM, taurocholate 30 mM, EDTA 40 mM, SDA 1 mM) was “reduced the TEER”; in series [6] (G-2MePE transport, EDTA 30 mM, sodium caprate 20 mM, taurocholate 20 & 30 mM, citric acid 30 mM), “significantly reduced”. For the same compound, the “permeability of the Caco-2 epithelial cell layer to fluorescein” value in series [5] (sodium caprate 10 or 20 mM, taurocholate 30 mM, EDTA 40 mM, SDA 1 mM, 3 h) was “significantly (P<0.05) increased”. Besides, in series [6] (EDTA 30 mM, sodium caprate 20 mM, taurocholate 20 and 30 mM, citric acid 30 mM, bacitracin 3.5 mM), the “permeability of the Caco-2 epithelial membrane to G-2MePE” value is “significantly increased”.

Turning to `CC[C@H](C)[C@H](N)C1=N[C@H](C(=O)N[C@@H](CC(C)C)C(=O)N[C@H](CCC(=O)O)C(=O)N[C@H](C(=O)N[C@H]2CCCCNC(=O)[C@H](CC(N)=O)NC(=O)[C@@H](CC(=O)O)NC(=O)[C@H](Cc3cnc[nH]3)NC(=O)[C@@H](Cc3ccccc3)NC(=O)[C@H]([C@@H](C)CC)NC(=O)[C@@H](CCCN)NC2=O)[C@@H](C)CC)CS1` [bacitracin] ({Ileψ(thiazoline)Cys}-L[dE]IK[dOrn]I[dF]H[dD]N; lactam 4-C), the “permeability of the Caco-2 epithelial membrane to G-2MePE” value in series [6] (Caco-2) is on record as “significantly increased”.

As usually defined, the IC50 is the concentration needed to halve the response being measured. One may read the inhibition as how much of the control response was suppressed. A higher inhibition goes with a response far below the control.
